Laboratory results from patent US10329270B2, “Heteroaryl compounds as BTK inhibitors and uses thereof” (Merck Patent GmbH, priority 2013, dated 2019).
pIC50: −log10 of the molar value.

Experiments:
[1] = biological target: T1, full-length human BTK (Homo sapiens, UniProt Q06187); experiment: Assay A: BTK IC50 Enzyme Assay (microfluidic off-chip mobility shift kinase assay); format: biochemical; details: full-length human BTK, kinKDR peptide substrate, incubated 90 min at 27 C; read-out: Assay A (Time Dependent BTK Enzyme Assay IC50)
T1 construct: 2.5× stocks of full-length human BTK (08-080); purchased CarnaBio USA, Inc., Natick, Mass; 08-080
Summary of the method: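 Off-chip microfluidic mobility shift assay with full-length human BTK; phosphorylated and unphosphorylated peptide substrate were separated by charge/mass on a LabChip 3000.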

[2] = system: PBMC; experiment: Assay B: Time Dependent PMBC IC50 Assay; format: cell-based
Description: Assay B: Time Dependent PMBC IC50 Assay
Compounds described by embodiments of the present invention were assayed using a time dependent PMBC assay. The data from the same is recorded in Table 2 within the column labeled: “Time Dependent PBMC Assay IC50.” These IC50 values are reported in ranges wherein: I<1 uM and II>1 uM.

T1 sequence (Q06187 whole entry): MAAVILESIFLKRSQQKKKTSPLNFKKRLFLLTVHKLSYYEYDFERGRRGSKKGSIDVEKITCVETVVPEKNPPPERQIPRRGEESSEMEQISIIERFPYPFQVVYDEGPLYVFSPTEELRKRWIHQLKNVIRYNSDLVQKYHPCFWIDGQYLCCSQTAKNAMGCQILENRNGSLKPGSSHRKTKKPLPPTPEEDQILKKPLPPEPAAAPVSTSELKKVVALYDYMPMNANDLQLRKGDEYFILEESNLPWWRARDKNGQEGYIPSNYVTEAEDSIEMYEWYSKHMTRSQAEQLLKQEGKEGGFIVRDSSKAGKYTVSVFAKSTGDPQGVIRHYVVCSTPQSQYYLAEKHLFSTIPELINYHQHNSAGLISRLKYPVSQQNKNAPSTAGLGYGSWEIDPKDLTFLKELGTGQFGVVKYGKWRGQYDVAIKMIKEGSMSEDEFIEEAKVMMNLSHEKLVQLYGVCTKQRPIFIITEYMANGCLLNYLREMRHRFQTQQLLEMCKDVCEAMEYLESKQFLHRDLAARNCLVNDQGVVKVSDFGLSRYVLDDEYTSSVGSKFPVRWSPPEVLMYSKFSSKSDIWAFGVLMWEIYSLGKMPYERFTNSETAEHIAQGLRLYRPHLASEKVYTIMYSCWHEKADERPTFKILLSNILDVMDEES

Row | SMILES | pIC50 [1] | pIC50 [2]
1 | C=CC(=O)N[C@@H]1CN(c2ccc(C(N)=O)c(Nc3ccc(CCN4CCCC4)cc3)n2)CC12CC2 [Compound 7, 6-((S)-7-Acryloylamino-5-aza-spiro[2.4]hept-5-yl)-2-[4-(2-pyrrolidin-1-yl-ethyl)-phenylamino]-nicotinamide] | > 7.00 | > 7.00
2 | C=CC(=O)N1CC[C@@H](Nc2ccc(C(N)=O)c(Oc3ccc(Oc4ccccc4)cc3)n2)C1 [Compound 72, 6-((R)-1-Acryloyl-pyrrolidin-3-ylamino)-2-(4-phenoxy-phenoxy)-nicotinamide] |  | > 7.00
3 | C=CC(=O)N1CCC(c2ccc(C(N)=O)c(Nc3ccc(OC4CCN(C)CC4)cc3)n2)CC1 [Compound 10, 1′-Acryloyl-6-[4-(1-methyl-piperidin-4-yloxy)-phenylamino]-1′,2′,3′,4′,5′,6′-hexahydro-[2,4′]bipyridinyl-5-carboxylic acid amide] | > 7.00 | > 7.00
4 | C=CC(=O)N[C@H]1CCN(c2ccc(C(N)=O)c(Nc3ccc(C(=O)N4CC(C)OC(C)C4)cc3)n2)C1 (stereo partly drawn) [Compound 40, 6-((S)-3-Acryloylamino-pyrrolidin-1-yl)-2-[4-(2,6-dimethyl-morpholine-4-carbonyl)-phenylamino]-nicotinamide] | > 7.00 | 6.00 to 7.00
5 | C=CC(=O)Nc1cncc(-c2ccc(C(N)=O)c(Oc3ccc(Oc4ccccc4)cc3)n2)c1 [Compound 75, 5′-acrylamido-6-(4-phenoxyphenoxy)-[2,3′-bipyridine]-5-carboxamide] | > 7.00 | > 7.00
6 | C=CC(=O)N(C)[C@H]1CCN(c2ccc(C(N)=O)c(Nc3ccc(CCN4CCCC4)cc3)n2)C1 [Compound 30, 6-[(S)-3-(Acryloyl-methyl-amino)-pyrrolidin-1-yl]-2-[4-(2-pyrrolidin-1-yl-ethyl)-phenylamino]-nicotinamide] | > 7.00 | > 7.00
7 | C=CC(=O)N1CCC(c2ccc(C(N)=O)c(Nc3ccc(C(=O)N4CCCCC4)cc3)n2)CC1 [Compound 22, 1′-Acryloyl-6-[4-(piperidine-1-carbonyl)-phenylamino]-1′,2′,3′,4′,5′,6′-hexahydro-[2,4′]bipyridinyl-5-carboxylic acid amide] | > 7.00 | > 7.00
8 | C=CC(=O)N[C@H]1CCN(c2ccc(C(N)=O)c(Nc3ccc(CCN4CCCC4)cc3)n2)C1 [Compound 16, 6-((S)-3-Acryloylamino-pyrrolidin-1-yl)-2-[4-(2-pyrrolidin-1-yl-ethyl)-phenylamino]-nicotinamide] | > 7.00 | > 7.00
9 | C=CC(=O)N1CC=C(c2ccc(C(N)=O)c(Nc3ccc(CCN4CCCC4)cc3)n2)CC1 [Compound 17, 1′-Acryloyl-6-[4-(2-pyrrolidin-1-yl-ethyl)-phenylamino]-1′,2′,3′,6′-tetrahydro-[2,4′]bipyridinyl-5-carboxylic acid amide] | > 7.00 | > 7.00
10 | C=CC(=O)N1C[C@@H]2C[C@H]1CN2c1ccc(C(N)=O)c(Oc2ccc(Oc3ccccc3)cc2)n1 [Compound 23, 6-((1S,4S)-5-acryloyl-2,5-diazabicyclo[2.2.1]heptan-2-yl)-2-(4-phenoxyphenoxy)nicotinamide] |  | > 7.00
11 | C=CC(=O)N1CCC=C(c2ccc(C(N)=O)c(Nc3ccc(CCN4CCCC4)cc3)n2)C1 [Compound 44, 1′-Acryloyl-6-[4-(2-pyrrolidin-1-yl-ethyl)-phenylamino]-1′,2′,5′,6′-tetrahydro-[2,3′]bipyridinyl-5-carboxylic acid amide] | > 7.00 | 6.00 to 7.00
12 | C=CC(=O)N[C@H]1CCN(c2ccc(C(N)=O)c(Nc3ccc(C4CCN(C)CC4)cc3)n2)C1 [Compound 14, 6-((S)-3-Acryloylamino-pyrrolidin-1-yl)-2-[4-(1-methyl-piperidin-4-yl)-phenylamino]-nicotinamide] | > 7.00 | > 7.00
13 | C=CC(=O)N1C2CCC1CN(c1ccc(C(N)=O)c(Oc3ccc(Oc4ccccc4)cc3)n1)C2 [Compound 68, 6-(8-Acryloyl-3,8-diaza-bicyclo[3.2.1]oct-3-yl)-2-(4-phenoxy-phenoxy)-nicotinamide] |  | > 7.00
14 | C=CC(=O)N[C@H]1CCN(c2ccc(C(N)=O)c(Nc3ccc(N4CCCCC4)cc3)n2)C1 [Compound 31, 6-((S)-3-Acryloylamino-pyrrolidin-1-yl)-2-(4-piperidin-1-yl-phenylamino)-nicotinamide] | > 7.00 | 6.00 to 7.00
15 | C=CC(=O)N[C@H]1CCN(c2ccc(C(N)=O)c(Nc3ccc(N4CCC(F)(F)CC4)cc3)n2)C1 [Compound 25, 6-((S)-3-Acryloylamino-pyrrolidin-1-yl)-2-[4-(4,4-difluoro-piperidin-1-yl)-phenylamino]-nicotinamide] | > 7.00 | 
16 | C=CC(=O)N1CCC(O)(c2ccc(C(N)=O)c(Oc3ccc(Oc4ccccc4)cc3)n2)C(O)C1 (stereo not drawn) [Compound 77, 1′-Acryloyl-3′,4′-dihydroxy-6-(4-phenoxy-phenoxy)-1′,2′,3′,4′,5′,6′-hexahydro-[2,4′]bipyridinyl-5-carboxylic acid amide] | > 7.00 | 
17 | CN(C)C/C=C/C(=O)N1CCC(c2ccc(C(N)=O)c(Oc3ccc(Oc4ccccc4)cc3)n2)CC1 [Compound 76, 1′-((E)-4-Dimethylamino-but-2-enoyl)-6-(4-phenoxy-phenoxy)-1′,2′,3′,4′,5′,6′-hexahydro-[2,4′]bipyridinyl-5-carboxylic acid amid] | > 7.00 | 
18 | C=CC(=O)N1CCC(c2ccc(C(N)=O)c(Nc3cccnc3)n2)CC1 [Compound 53, 1′-Acryloyl-6-(pyridin-3-ylamino)-1′,2′,3′,4′,5′,6′-hexahydro-[2,4′]bipyridinyl-5-carboxylic acid amide] | > 7.00 | 

The next lines start with results.

Row | pIC50 [1] | SMILES | pIC50 [2]
19 | > 7.00 | C=CC(=O)N1CCN(c2ncc(C(N)=O)c(Oc3ccc(Oc4ccccc4)cc3)n2)CC1 [Compound 173, 2-(4-Acryloyl-piperazin-1-yl)-4-(4-phenoxy-phenoxy)-pyrimidine-5-carboxylic acid amide] | > 7.00
20 | > 7.00 | C=CC(=O)N1CCC(c2ccc(C(N)=O)c(Nc3ccc(C(=O)N4CCN(C(=O)CCCCNC(=O)CCOCCOCCOCCOCCNC(=O)CCCCC5SCC6NC(=O)NC65)CC4)cc3)n2)CC1 (stereo not drawn) [Compound 177] | < 5.30
21 | > 7.00 | C=CC(=O)N[C@H]1CCN(c2nc(Nc3ccc(N4CC(C)OC(C)C4)cc3)c(C(N)=O)cc2F)C1 (stereo partly drawn) [Compound 188, 6-((S)-3-Acryloylamino-pyrrolidin-1-yl)-2-[4-(2,6-dimethyl-morpholin-4-yl)-phenylamino]-5-fluoro-nicotinamide] | > 7.00
22 | 6.00 to 7.00 | N#CN[C@@H]1CCCN(c2ccc(C(N)=O)c(Nc3ccc(C(=O)N4CCOCC4)cc3)n2)C1 [Compound 227, (R)-3-Cyanoamino-6′-[4-(morpholine-4-carbonyl)-phenylamino]-3,4,5,6-tetrahydro-2H-[1,2′]bipyridinyl-5′-carboxylic acid amide] | < 5.30
23 | > 7.00 | C=CC(=O)N1CCC(c2cnc(C(N)=O)c(NC(C)=O)c2)CC1 [Compound 134] | 6.00 to 7.00
24 | > 7.00 | N#CN1CCCC(c2cnc(Oc3ccc(Oc4ccccc4)cc3)c(C(N)=O)c2)C1 (stereo not drawn) [Compound 236, 1′-Cyano-6-(4-phenoxy-phenoxy)-1′,2′,3′,4′,5′,6′-hexahydro-[3,3′]bipyridinyl-5-carboxylic acid amide] | 6.00 to 7.00
25 | > 7.00 | C=CC(=O)N1CCC(c2ccc(C(N)=O)c(Nc3ccc(C(=O)N4CCCC(NC(=O)CCOCCOCCOCCOCCNC(=O)CCCC[C@@H]5SCC6NC(=O)NC65)C4)cc3)n2)CC1 (stereo partly drawn) [Compound 191, 6-(1-acryloylpiperidin-4-yl)-2-((4-(3-(17-oxo-21-((4S)-2-oxohexahydro-1H-thieno[3,4-d]imidazol-4-yl)-4,7,10,13-tetraoxa-16-azahenicosanamido)piperidine-1-carbonyl)phenyl)amino)nicotinamide] | < 5.30
26 | > 7.00 | N#CN1CCC[C@H](c2cnc(Oc3ccc(Oc4ccccc4)cc3)c(C(N)=O)c2)C1 [Compound 241, (R)-5-(1-cyanopiperidin-3-yl)-2-(4-phenoxyphenoxy)nicotinamide] | 6.00 to 7.00
27 | > 7.00 | C=CC(=O)N[C@H]1CCN(c2ccc(C(N)=O)c(Oc3ccc(Oc4cccc(C(F)(F)F)c4)cc3)n2)C1 [Compound 82, (S)-6-(3-acrylamidopyrrolidin-1-yl)-2-(4-(3-(trifluoromethyl)phenoxy)phenoxy)nicotinamide] | 
28 | > 7.00 | C=CC(=O)N[C@H]1CCN(c2nc(Nc3ccc(F)c(C)c3)ccc2C(N)=O)C1 [Compound 157, 2-((S)-3-Acryloylamino-pyrrolidin-1-yl)-6-(4-fluoro-3-methyl-phenylamino)-nicotinamide] | 
29 | 6.00 to 7.00 | C=CC(=O)N[C@H]1CCN(c2cc(Oc3ccc(OCc4ccccc4)cc3)c(C(N)=O)cn2)C1 [Compound 112, (S)-6-(3-acrylamidopyrrolidin-1-yl)-4-(4-(benzyloxy)phenoxy)nicotinamide] | 
30 | 5.30 to 6.00 | C/C=C/C(=O)N1CCC2(CCN(c3cnc(Oc4ccc(Oc5cccc(F)c5)cc4)c(C(N)=O)c3)C2)C1 (stereo not drawn) [Compound 232, (E)-5-(7-(but-2-enoyl)-2,7-diazaspiro[4.4]nonan-2-yl)-2-(4-(3-fluorophenoxy)phenoxy) nicotinamide] | 
31 | < 5.30 | C/C=C/C(=O)NC1CCN(c2cnc(Oc3ccc(Oc4cccc(F)c4)cc3)c(C(N)=O)c2)C1 (stereo not drawn) [Compound 221, 5-[3-((E)-But-2-enoylamino)-pyrrolidin-1-yl]-2-[4-(3-fluoro-phenoxy)-phenoxy]-nicotinamide] | 
32 | > 7.00 | C=CC(=O)N[C@H]1CCN(c2ncc(C(N)=O)c(Nc3ccc(C(=O)N4CCOCC4)cc3)n2)C1 [Compound 140, 2-((S)-3-Acryloylamino-pyrrolidin-1-yl)-4-[4-(morpholine-4-carbonyl)-phenylamino]-pyrimidine-5-carboxylic acid amide] | 
